# Bridge positions count the residues as written; N and C are the ends. Square brackets hold non-standard residues; d marks the D form. Peptide text beside a SMILES is read from it. * marks the point of attachment. ξ: configuration not given here. Phe(4-CF3) = N[C@@H](Cc1ccc(C(F)(F)F)cc1)C(=O)O; Phe(4-COOH) = N[C@@H](Cc1ccc(C(=O)O)cc1)C(=O)O; Bip = N[C@@H](Cc1ccc(-c2ccccc2)cc1)C(=O)O; NH(CH2)14COOH = O=C(O)CCCCCCCCCCCCCCN*; Phe(3-Me) = Cc1cccc(C[C@H](N)C(=O)O)c1; NH(CH2)12COOH = O=C(O)CCCCCCCCCCCCN*; Val(3-OH) = CC(C)(O)[C@H](N)C(=O)O; Cha = N[C@@H](CC1CCCCC1)C(=O)O; Thr(3ξ) = CC(O)[C@H](N)C(=O)O; Carboxymethyl = O=C(O)C*; Nle = CCCC[C@H](N)C(=O)O; Orn = NCCC[C@H](N)C(=O)O; Aun = NCCCCCCCCCCC(=O)O; Dab = NCC[C@H](N)C(=O)O; Nva = CCC[C@H](N)C(=O)O; Abu = CC[C@H](N)C(=O)O; AEEA = NCCOCCOCC(=O)O
# Target: T1, PD-1/PD-L1 interaction (PE-labeled human PD-L1-Ig binding to Jurkat cell line over-expressing human PD-1) (Homo sapiens, UniProt Q15116)
# T1 construct: expressed in transfected cells; host or cells: Jurkat
# Assay: Jurkat-PD-1 Cell Binding High-Content Screening Assay (CBA)
# Assay type: cell-based
# Conditions: Jurkat cell line over-expressing human PD-1; PE-labeled PD-L1-Ig 20 nM final; read-out: Jurkat hPD1-PDL1 IC50
# Method in brief: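 Read-out is high-content imaging of cell-bound phycoerythrin-tagged PD-L1-Ig on fixed, Hoechst-counterstained Jurkat cells that over-express human PD-1. Compound exposure lasts 2 h at 37° C before the labeled ligand (20 nM final) is added for a further hour.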
# T1 sequence (Q15116 25-288): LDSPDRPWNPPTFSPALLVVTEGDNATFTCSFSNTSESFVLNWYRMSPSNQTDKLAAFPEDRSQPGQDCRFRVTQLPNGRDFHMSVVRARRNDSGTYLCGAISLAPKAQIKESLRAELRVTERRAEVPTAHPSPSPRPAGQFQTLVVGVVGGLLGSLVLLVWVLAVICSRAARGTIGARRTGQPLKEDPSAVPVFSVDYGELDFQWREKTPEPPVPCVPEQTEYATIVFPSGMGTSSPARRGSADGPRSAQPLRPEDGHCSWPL
row,Structure (SMILES),IC50 [nM]
1,CCC[C@@H]1NC(=O)CSC[C@@H](C(=O)N[C@@H](CCN)C(=O)NCCOCCOCC(=O)NCCCCCCCCCCC(=O)O)NC(=O)[C@H](Cc2cnc[nH]2)NC(=O)[C@H](C(C)C)NC(=O)[C@H](CC2CCCCC2)NC(=O)[C@H](CCN)NC(=O)[C@@H](CC(C)C)NC(=O)[C@H](CCCN)NC(=O)[C@H](Cc2ccc(OCC(=O)O)cc2)NC(=O)[C@H](Cc2ccc(-c3ccccc3)cc2)NC(=O)[C@H](Cc2ccc(OCC(=O)O)cc2)NC(=O)[C@H](Cc2cccc(C)c2)NC(=O)[C@H](CC(=O)O)NC(=O)[C@H](Cc2ccc(OCC(=O)O)cc2)NC1=O [Compound 3803] ({CH2CO}-[Nva]Y(Carboxymethyl)D[Phe(3-Me)]Y(Carboxymethyl)[Bip]Y(Carboxymethyl)[Orn][dL][Dab][Cha]VHC[Dab][AEEA][Aun]-OH; thioether N-14),2.7
2,CCC[C@@H]1NC(=O)CSC[C@@H](C(=O)N[C@@H](CCN)C(=O)NCCOCCOCC(=O)NCCCCCCCCCCC(=O)O)NC(=O)[C@H](CC(=O)O)NC(=O)[C@H](C(C)C)NC(=O)[C@H](CC2CCCCC2)NC(=O)[C@H](CCN)NC(=O)[C@@H](CC(C)C)NC(=O)[C@H](CCCN)NC(=O)[C@H](Cc2ccc(OCC(=O)O)cc2)NC(=O)[C@H](Cc2ccc(-c3ccccc3)cc2)NC(=O)[C@H](Cc2ccc(OCC(=O)O)cc2)NC(=O)[C@H](Cc2cccc(C)c2)NC(=O)[C@H](CC(=O)O)NC(=O)[C@H](Cc2ccc(OCC(=O)O)cc2)NC1=O [Compound 3804] ({CH2CO}-[Nva]Y(Carboxymethyl)D[Phe(3-Me)]Y(Carboxymethyl)[Bip]Y(Carboxymethyl)[Orn][dL][Dab][Cha]VDC[Dab][AEEA][Aun]-OH; thioether N-14),0.2
3,Cc1cccc(C[C@@H]2NC(=O)[C@H](CC(=O)O)NC(=O)[C@H](Cc3ccc(OCC(=O)O)cc3)NC(=O)[C@H](CCN)NC(=O)CSC[C@@H](C(=O)N[C@@H](CCN)C(=O)NCCOCCOCC(=O)NCCCCCCCCCCC(=O)O)NC(=O)[C@H](Cc3cnc[nH]3)NC(=O)[C@H](C(C)O)NC(=O)[C@H](CC3CCCCC3)NC(=O)[C@H](CCN)NC(=O)[C@@H](CC(C)C)NC(=O)[C@H](CCCN)NC(=O)[C@H](Cc3ccc(OCC(=O)O)cc3)NC(=O)[C@H](Cc3ccc(-c4ccccc4)cc3)NC(=O)[C@H](Cc3ccc(OCC(=O)O)cc3)NC2=O)c1 (stereo partly drawn) [Compound 3805] ({CH2CO}-[Dab]Y(Carboxymethyl)D[Phe(3-Me)]Y(Carboxymethyl)[Bip]Y(Carboxymethyl)[Orn][dL][Dab][Cha][Thr(3ξ)]HC[Dab][AEEA][Aun]-OH; thioether N-14),1.2
4,Cc1cccc(C[C@@H]2NC(=O)[C@H](CC(=O)O)NC(=O)[C@H](Cc3ccc(OCC(=O)O)cc3)NC(=O)[C@H](C(C)O)NC(=O)CSC[C@@H](C(=O)N[C@@H](CCN)C(=O)NCCOCCOCC(=O)NCCCCCCCCCCC(=O)O)NC(=O)[C@H](CCC(=O)O)NC(=O)[C@H](C(C)C)NC(=O)[C@H](CC3CCCCC3)NC(=O)[C@H](CCN)NC(=O)[C@@H](CC(C)C)NC(=O)[C@H](CCCN)NC(=O)[C@H](Cc3ccc(OCC(=O)O)cc3)NC(=O)[C@H](Cc3ccc(-c4ccccc4)cc3)NC(=O)[C@H](Cc3ccc(OCC(=O)O)cc3)NC2=O)c1 (stereo partly drawn) [Compound 3806] ({CH2CO}-[Thr(3ξ)]Y(Carboxymethyl)D[Phe(3-Me)]Y(Carboxymethyl)[Bip]Y(Carboxymethyl)[Orn][dL][Dab][Cha]VEC[Dab][AEEA][Aun]-OH; thioether N-14),5.2
5,CCC[C@@H]1NC(=O)CSC[C@@H](C(=O)N[C@@H](CCN)C(=O)NCCOCCOCC(=O)NCCCCCCCCCCC(=O)O)NC(=O)[C@H](CCC(=O)O)NC(=O)[C@H](CO)NC(=O)[C@H](CC2CCCCC2)NC(=O)[C@H](CCN)NC(=O)[C@@H](CC(C)C)NC(=O)[C@H](CCCN)NC(=O)[C@H](Cc2ccc(OCC(=O)O)cc2)NC(=O)[C@H](Cc2ccc(-c3ccccc3)cc2)NC(=O)[C@H](Cc2ccc(OCC(=O)O)cc2)NC(=O)[C@H](Cc2cccc(C)c2)NC(=O)[C@H](CC(=O)O)NC(=O)[C@H](Cc2ccc(OCC(=O)O)cc2)NC1=O [Compound 3807] ({CH2CO}-[Nva]Y(Carboxymethyl)D[Phe(3-Me)]Y(Carboxymethyl)[Bip]Y(Carboxymethyl)[Orn][dL][Dab][Cha]SEC[Dab][AEEA][Aun]-OH; thioether N-14),20.4
6,CCCC[C@@H]1NC(=O)CSC[C@@H](C(=O)N[C@@H](CCN)C(=O)NCCOCCOCC(=O)NCCOCCOCC(=O)NCCCCCCCCCCCCC(=O)O)NC(=O)[C@H](CCC(=O)O)NC(=O)[C@H](C(C)C)NC(=O)[C@H](CC2CCCCC2)NC(=O)[C@H](CCN)NC(=O)[C@@H](CC(C)C)NC(=O)[C@H](CCCN)NC(=O)[C@H](Cc2ccc(C(=O)O)cc2)NC(=O)[C@H](Cc2ccc(-c3ccccc3)cc2)NC(=O)[C@H](Cc2ccc(C(=O)O)cc2)NC(=O)[C@H](Cc2cccc(C)c2)NC(=O)[C@H](CC(=O)O)NC(=O)[C@H](Cc2ccc(OCC(=O)O)cc2)NC1=O [Compound 3809] ({CH2CO}-[Nle]Y(Carboxymethyl)D[Phe(3-Me)][Phe(4-COOH)][Bip][Phe(4-COOH)][Orn][dL][Dab][Cha]VEC[Dab][AEEA][AEEA]-{NH(CH2)12COOH}; thioether N-14),15.4
7,Cc1cccc(C[C@@H]2NC(=O)[C@H](CC(=O)O)NC(=O)[C@H](Cc3ccc(OCC(=O)O)cc3)NC(=O)[C@H](C(C)O)NC(=O)CSC[C@@H](C(=O)N[C@@H](CCN)C(=O)NCCCCCCCCCCCCC(=O)O)NC(=O)[C@H](CO)NC(=O)[C@H](C(C)(C)O)NC(=O)[C@H](CC3CCCCC3)NC(=O)[C@H](CCN)NC(=O)[C@@H](CC(C)C)NC(=O)[C@H](CCCN)NC(=O)[C@H](Cc3ccc(OCC(=O)O)cc3)NC(=O)[C@H](Cc3ccc(-c4ccccc4)cc3)NC(=O)[C@H](Cc3ccc(C(F)(F)F)cc3)NC2=O)c1 (stereo partly drawn) [Compound 3810] ({CH2CO}-[Thr(3ξ)]Y(Carboxymethyl)D[Phe(3-Me)][Phe(4-CF3)][Bip]Y(Carboxymethyl)[Orn][dL][Dab][Cha][Val(3-OH)]SC[Dab]-{NH(CH2)12COOH}; thioether N-14),19.8
8,CC[C@@H]1NC(=O)CSC[C@@H](C(=O)N[C@@H](CCN)C(=O)NCCOCCOCC(=O)N[C@@H](CCC(=O)O)C(=O)NCCCCCCCCCCCCC(=O)O)NC(=O)[C@H](CO)NC(=O)[C@H](C(C)(C)O)NC(=O)[C@H](CC2CCCCC2)NC(=O)[C@H](CCN)NC(=O)[C@@H](CC(C)C)NC(=O)[C@H](CCCN)NC(=O)[C@H](Cc2ccc(OCC(=O)O)cc2)NC(=O)[C@H](Cc2ccc(-c3ccccc3)cc2)NC(=O)[C@H](Cc2ccc(OCC(=O)O)cc2)NC(=O)[C@H](Cc2cccc(C)c2)NC(=O)[C@H](CC(=O)O)NC(=O)[C@H](Cc2ccc(OCC(=O)O)cc2)NC1=O [Compound 3811] ({CH2CO}-[Abu]Y(Carboxymethyl)D[Phe(3-Me)]Y(Carboxymethyl)[Bip]Y(Carboxymethyl)[Orn][dL][Dab][Cha][Val(3-OH)]SC[Dab][AEEA]E-{NH(CH2)12COOH}; thioether N-14),3.9
9,CCCC[C@@H]1NC(=O)CSC[C@@H](C(=O)N[C@@H](CCN)C(=O)NCCOCCOCC(=O)NCCOCCOCC(=O)NCCCCCCCCCCCCC(=O)O)NC(=O)[C@H](CO)NC(=O)[C@H](C(C)(C)O)NC(=O)[C@H](CC2CCCCC2)NC(=O)[C@H](CCN)NC(=O)[C@@H](CC(C)C)NC(=O)[C@H](CCCN)NC(=O)[C@H](Cc2ccc(OCC(=O)O)cc2)NC(=O)[C@H](Cc2ccc(-c3ccccc3)cc2)NC(=O)[C@H](Cc2ccc(OCC(=O)O)cc2)NC(=O)[C@H](Cc2cccc(C)c2)NC(=O)[C@H](CC(=O)O)NC(=O)[C@H](Cc2ccc(OCC(=O)O)cc2)NC1=O [Compound 3812] ({CH2CO}-[Nle]Y(Carboxymethyl)D[Phe(3-Me)]Y(Carboxymethyl)[Bip]Y(Carboxymethyl)[Orn][dL][Dab][Cha][Val(3-OH)]SC[Dab][AEEA][AEEA]-{NH(CH2)12COOH}; thioether N-14),13.3
10,Cc1cccc(C[C@@H]2NC(=O)[C@H](CC(=O)O)NC(=O)[C@H](Cc3ccc(OCC(=O)O)cc3)NC(=O)[C@H](CCN)NC(=O)CSC[C@@H](C(=O)N[C@@H](CCN)C(=O)NCCOCCOCC(=O)NCCOCCOCC(=O)NCCCCCCCCCCCCC(=O)O)NC(=O)[C@H](CO)NC(=O)[C@H](C(C)(C)O)NC(=O)[C@H](CC3CCCCC3)NC(=O)[C@H](CCN)NC(=O)[C@@H](CC(C)C)NC(=O)[C@H](CCCN)NC(=O)[C@H](Cc3ccc(OCC(=O)O)cc3)NC(=O)[C@H](Cc3ccc(-c4ccccc4)cc3)NC(=O)[C@H](Cc3ccc(OCC(=O)O)cc3)NC2=O)c1 [Compound 3813] ({CH2CO}-[Dab]Y(Carboxymethyl)D[Phe(3-Me)]Y(Carboxymethyl)[Bip]Y(Carboxymethyl)[Orn][dL][Dab][Cha][Val(3-OH)]SC[Dab][AEEA][AEEA]-{NH(CH2)12COOH}; thioether N-14),6.9
11,Cc1cccc(C[C@@H]2NC(=O)[C@H](CC(=O)O)NC(=O)[C@H](Cc3ccc(OCC(=O)O)cc3)NC(=O)[C@H](CCN)NC(=O)CSC[C@@H](C(=O)N[C@@H](CCN)C(=O)NCCOCCOCC(=O)N[C@@H](CCC(=O)O)C(=O)NCCCCCCCCCCCCCCC(=O)O)NC(=O)[C@H](CO)NC(=O)[C@H](C(C)(C)O)NC(=O)[C@H](CC3CCCCC3)NC(=O)[C@H](CCN)NC(=O)[C@@H](CC(C)C)NC(=O)[C@H](CCCN)NC(=O)[C@H](Cc3ccc(OCC(=O)O)cc3)NC(=O)[C@H](Cc3ccc(-c4ccccc4)cc3)NC(=O)[C@H](Cc3ccc(OCC(=O)O)cc3)NC2=O)c1 [Compound 3814] ({CH2CO}-[Dab]Y(Carboxymethyl)D[Phe(3-Me)]Y(Carboxymethyl)[Bip]Y(Carboxymethyl)[Orn][dL][Dab][Cha][Val(3-OH)]SC[Dab][AEEA]E-{NH(CH2)14COOH}; thioether N-14),53.4

# Source: patent US20260022142A1, “MACROCYCLIC IMMUNOMODULATORS” (Bristol-Myers Squibb Company, priority 2022, published 2026)
